Experiments:
[1] = mn = molality of the nth substance listed, in mol/kg; conditions: 100 kPa, Liquid; for viscosity: Falling or rolling sphere viscometry; for speed of sound: Frequency=3 MHz, Sing-around technique in a fixed-path interferometer; for mass density: Vibrating tube method
[2] = 100 kPa, Liquid, Falling or rolling sphere viscometry

CC(=O)NCC(=O)O [N-acetylglycine] + O
[1]
Conditions | mass density, m1 = 0.05 [kg/m3] | mass density, m1 = 0.1 [kg/m3] | mass density, m1 = 0.2 [kg/m3] | speed of sound, m1 = 0.05 [m/s] | speed of sound, m1 = 0.1 [m/s] | speed of sound, m1 = 0.2 [m/s] | viscosity, m1 = 0.05 [mPa·s] | viscosity, m1 = 0.1 [mPa·s] | viscosity, m1 = 0.2 [mPa·s]
288.15 K | 1001.32 | 1002.84 | 1005.54 | 1468.9 | 1472.1 | 1476.4 | 1.091 | 1.151 | 1.187
293.15 K | 1000.04 | 1001.89 | 1004.84 | 1484.8 | 1486.7 | 1491.2 | 0.9664 | 1.019 | 1.048
298.15 K | 998.801 | 1000.37 | 1003.79 | 1499.6 | 1501.3 | 1504.5 | 0.863 | 0.9071 | 0.9357
303.15 K | 997.363 | 998.824 | 1002.6 | 1514 | 1516.3 | 1519 | 0.8379 | 0.8579 | 0.8904
308.15 K | 995.711 | 997.285 | 1001.3 | 1521.7 | 1524.7 | 1527.2 | 0.7411 | 0.7624 | 0.7856

O [water]
[2]
Conditions | viscosity [mPa·s]
288.15 K | 1.043
293.15 K | 0.9312
298.15 K | 0.8319
303.15 K | 0.7981
308.15 K | 0.7202

O [water] + CC(=O)NCC(=O)O
[1], m2 = 0
Conditions | viscosity [mPa·s]
288.15 K | 1.043
293.15 K | 0.9312
298.15 K | 0.8319
303.15 K | 0.7981
308.15 K | 0.7202

O [water] + O=P([O-])([O-])O.[K+].[K+]
[1], m2 = 0
Conditions | viscosity [mPa·s]
288.15 K | 1.043
293.15 K | 0.9312
298.15 K | 0.8319
303.15 K | 0.7981
308.15 K | 0.7202

O [water] + O=P([O-])([O-])O.[Na+].[Na+]
[1], m2 = 0
Conditions | viscosity [mPa·s]
288.15 K | 1.043
293.15 K | 0.9312
298.15 K | 0.8319
303.15 K | 0.7981
308.15 K | 0.7202

Source: the NIST ThermoML archive (doi:10.1016/j.jct.2015.10.017)
